These results are taken from US12662489B2 (Sitryx Therapeutics Limited, priority 2023, dated 2026).

The target in experiment [1] is T1, MTHFD1 recombinant human enzyme (Homo sapiens, UniProt P11586).
T1 sequence (P11586 2-291 limits assumed): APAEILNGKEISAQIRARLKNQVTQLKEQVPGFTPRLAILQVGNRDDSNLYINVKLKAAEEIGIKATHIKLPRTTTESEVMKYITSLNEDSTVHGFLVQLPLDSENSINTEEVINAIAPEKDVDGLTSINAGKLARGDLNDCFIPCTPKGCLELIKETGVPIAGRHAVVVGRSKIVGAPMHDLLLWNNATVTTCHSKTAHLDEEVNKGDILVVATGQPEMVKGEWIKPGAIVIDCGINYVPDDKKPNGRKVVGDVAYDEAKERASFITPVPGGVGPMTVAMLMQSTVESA
Put plainly: MTHFD1 inhibition assay (NAD(P)H-Glo luminescence). The following applies: MTHFD1 IC50, recombinant human enzyme 200 nM, NADP, band.

Experiment [2] addresses T2, MTHFD2 recombinant human enzyme (Homo sapiens, UniProt P13995).
T2 sequence (P13995 36-350): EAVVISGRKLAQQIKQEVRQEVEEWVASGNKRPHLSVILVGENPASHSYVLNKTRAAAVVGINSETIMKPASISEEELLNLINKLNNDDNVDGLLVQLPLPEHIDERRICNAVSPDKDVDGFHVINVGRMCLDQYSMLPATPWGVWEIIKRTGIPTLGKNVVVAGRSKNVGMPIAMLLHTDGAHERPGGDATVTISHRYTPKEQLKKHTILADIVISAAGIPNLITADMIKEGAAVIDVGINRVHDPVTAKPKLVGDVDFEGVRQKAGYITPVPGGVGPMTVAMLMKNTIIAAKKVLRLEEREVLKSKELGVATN
Put plainly: MTHFD2 inhibition assay (NAD(P)H-Glo luminescence). The following applies: for MTHFD1/MTHFD2 IC50 ratio: selectivity of MTHFD2 inhibition over MTHFD1, band.

One may read the IC50 as the concentration that gives 50% inhibition. In the case of `COC[C@H]1CN(c2cc(C)c3c4c(c(=O)oc3c2C)CN(C(=O)c2ccc(C(=O)NS(=O)(=O)N3CC5CC5C3)c(OC3CC3)c2F)CC4)CCN1C` (stereo partly drawn) [Example 207, N-((3-azabicyclo[3.1.0]hexan-3-yl)sulfonyl)-2-cyclopropoxy-3-fluoro-4-(8-((R)-3-(methoxymethyl)-4-methylpiperazin-1-yl)-7,10-dimethyl-5-oxo-1,3,4,5-tetrahydro-2H-chromeno[3,4-c]pyridine-3-carbonyl)benzamide], the IC50 in experiment [1] and in experiment [2] was 10 to 100 nM throughout. The “MTHFD1/MTHFD2 IC50 ratio” value in experiment [2] is given as “F (<3)”.
For `COC[C@H]1CN(c2cc(Cl)c3c4c(c(=O)oc3c2C)CN(C(=O)c2cc(N(C)C)c(C(=O)NS(=O)(=O)N3CCCCC3)cc2F)CC4)CCN1C` [Example 275, (R)-4-(10-chloro-8-(3-(methoxymethyl)-4-methylpiperazin-1-yl)-7-methyl-5-oxo-1,3,4,5-tetrahydro-2H-chromeno[3,4-c]pyridine-3-carbonyl)-2-(dimethylamino)-5-fluoro-N-(piperidin-1-ylsulfonyl)benzamide], in experiment [1], the IC50 is 100 to 1000 nM. For the same compound, in experiment [2], the IC50 fell in the range of 10 to 100 nM and the “MTHFD1/MTHFD2 IC50 ratio” value was “G (^ 3 to 9.0)”.
`COC[C@H]1CN(c2ccc3c4c(c(=O)oc3c2Cl)CN(C(=O)c2ccc(C(=O)NS(=O)(=O)N3CCCC3)c(OC3CCC3)c2F)CC4)CCN1C` [Example 53, (R)-4-(7-chloro-8-(3-(methoxymethyl)-4-methylpiperazin-1-yl)-5-oxo-1,3,4,5-tetrahydro-2H-chromeno[3,4-c]pyridine-3-carbonyl)-2-cyclobutoxy-3-fluoro-N-(pyrrolidin-1-ylsulfonyl)benzamide]: the IC50 in experiment [1] lay within 1 to 10 nM. Besides, in experiment [2], the IC50 was 10 to 100 nM and the “MTHFD1/MTHFD2 IC50 ratio” value is reported as “F (<3)”.
On to `COC[C@H]1CN(c2cc(C)c3c4c(c(=O)oc3c2C)CN(C(=O)c2ccc(C(=O)NS(=O)(=O)C3(C)CC3)c(N3CCC(F)(F)C3)c2)CC4)CCN1C` [Example 81, (R)-2-(3,3-difluoropyrrolidin-1-yl)-4-(8-(3-(methoxymethyl)-4-methylpiperazin-1-yl)-7,10-dimethyl-5-oxo-1,3,4,5-tetrahydro-2H-chromeno[3,4-c]pyridine-3-carbonyl)-N-((1-methylcyclopropyl)sulfonyl)benzamide], for which the IC50 fell in the range of 10 to 100 nM in experiment [1] and 1 to 10 nM in experiment [2].
As to `COC[C@H]1CN(c2ccc3c4c(c(=O)oc3c2Cl)CN(C(=O)c2ccc(C(=O)NS(=O)(=O)N3CCCC3)c(OC3CCC3)c2)CC4)CCN1C` [Example 14, (R)-4-(7-chloro-8-(3-(methoxymethyl)-4-methylpiperazin-1-yl)-5-oxo-1,3,4,5-tetrahydro-2H-chromeno[3,4-c]pyridine-3-carbonyl)-2-cyclobutoxy-N-(pyrrolidin-1-ylsulfonyl)benzamide], in experiment [1], the concentration for half-maximal inhibition (IC50) is 10 to 100 nM. For the same compound, in experiment [2], the IC50 lay in the range of 10 to 100 nM and the “MTHFD1/MTHFD2 IC50 ratio” value is on record as “F (<3)”.
Turning to `COC[C@H]1CN(c2cc(Cl)c3c4c(c(=O)oc3c2C)CN(C(=O)c2cc(N(C)C)c(C(=O)NS(=O)(=O)N3CCC[C@@H]3C(F)(F)F)cc2F)CC4)CCN1C` [Example 278, 4-(10-chloro-8-((R)-3-(methoxymethyl)-4-methylpiperazin-1-yl)-7-methyl-5-oxo-1,3,4,5-tetrahydro-2H-chromeno[3,4-c]pyridine-3-carbonyl)-2-(dimethylamino)-5-fluoro-N-(((R)-2-(trifluoromethyl)pyrrolidin-1-yl)sulfonyl)benzamide], in experiment [1], the IC50 lay within 100 to 1000 nM. Besides, in experiment [2], the IC50 fell in the range of 10 to 100 nM and the “MTHFD1/MTHFD2 IC50 ratio” value is given as “H (>9.0 to 30)”.
Turning to `CCOc1cc(C(=O)N2CCc3c(c(=O)oc4c(C)c(N5CCN(C)[C@@H](COC)C5)cc(C)c34)C2)c(F)cc1C(=O)NS(=O)(=O)N(C)C1CC1` [Example 269, (R)-N-(N-cyclopropyl-N-methylsulfamoyl)-2-ethoxy-5-fluoro-4-(8-(3-(methoxymethyl)-4-methylpiperazin-1-yl)-7,10-dimethyl-5-oxo-1,3,4,5-tetrahydro-2H-chromeno[3,4-c]pyridine-3-carbonyl)benzamide], the IC50 in experiment [1] lay in the range of 10 to 100 nM. Further, in experiment [2], the IC50 was in the range of 1 to 10 nM and the “MTHFD1/MTHFD2 IC50 ratio” value is given as “J (>30)”.
For the compound `COC[C@H]1CN(c2cc(C)c3c4c(c(=O)oc3c2C)CN(C(=O)c2ccc(C(=O)NS(=O)(=O)N(C)C)c(N3CCC(C)(C)C3)c2)CC4)CCN1C` [Example 88, (R)-2-(3,3-dimethylpyrrolidin-1-yl)-N-(N,N-dimethylsulfamoyl)-4-(8-(3-(methoxymethyl)-4-methylpiperazin-1-yl)-7,10-dimethyl-5-oxo-1,3,4,5-tetrahydro-2H-chromeno[3,4-c]pyridine-3-carbonyl)benzamide], the IC50 in experiment [1] was 1 to 10 nM. Also, in experiment [2], the IC50 lay in the range of 1 to 10 nM and the “MTHFD1/MTHFD2 IC50 ratio” value is “F (<3)”.
Regarding `COC[C@H]1CN(c2cc(C)c3c4c(c(=O)oc3c2C)CN(C(=O)c2ccc(C(=O)NS(=O)(=O)N3CCCC3)c(N3CCC(F)(F)C3)c2)CC4)CCN1C` [Example 92, (R)-2-(3,3-difluoropyrrolidin-1-yl)-4-(8-(3-(methoxymethyl)-4-methylpiperazin-1-yl)-7,10-dimethyl-5-oxo-1,3,4,5-tetrahydro-2H-chromeno[3,4-c]pyridine-3-carbonyl)-N-(pyrrolidin-1-ylsulfonyl)benzamide], in experiment [1], the IC50 lay in the range of 10 to 100 nM. Further, in experiment [2], the IC50 was 1 to 10 nM and the “MTHFD1/MTHFD2 IC50 ratio” value was “H (>9.0 to 30)”.
For `COC[C@H]1CN(c2cc(C)c3c4c(c(=O)oc3c2C)CN(C(=O)c2ccc(C(=O)NS(=O)(=O)N3CCCC3)c(O[C@@H]3C[C@@H]5C[C@@H]5C3)c2F)CC4)CCN1C` [Example 35, 2-(((1R,3r,5S)-bicyclo[3.1.0]hexan-3-yl)oxy)-3-fluoro-4-(8-((R)-3-(methoxymethyl)-4-methylpiperazin-1-yl)-7,10-dimethyl-5-oxo-1,3,4,5-tetrahydro-2H-chromeno[3,4-c]pyridine-3-carbonyl)-N-(pyrrolidin-1-ylsulfonyl)benzamide] the same measures were 1 to 10 nM, 1 to 10 nM and “F (<3)”.
`COC[C@H]1CN(c2ccc3c4c(c(=O)oc3c2Cl)CN(C(=O)c2ccc(C(=O)NS(=O)(=O)N3CCCC3)c(OC3CCCC3)c2F)CC4)CCN1C` [Example 6, (R)-4-(7-chloro-8-(3-(methoxymethyl)-4-methylpiperazin-1-yl)-5-oxo-1,3,4,5-tetrahydro-2H-chromeno[3,4-c]pyridine-3-carbonyl)-2-(cyclopentyloxy)-3-fluoro-N-(pyrrolidin-1-ylsulfonyl)benzamide]: the 50% inhibitory concentration (IC50) in experiment [1] lay in the range of 1 to 10 nM. Moreover, in experiment [2], the IC50 was 10 to 100 nM and the “MTHFD1/MTHFD2 IC50 ratio” value is given as “F (<3)”.
For `COC[C@H]1CN(c2cc(C)c3c4c(c(=O)oc3c2C)CN(C(=O)c2ccc(C(=O)NS(=O)(=O)N(C)C)c(OC3C5CC6CC(C5)CC3C6)c2F)CC4)CCN1C` (stereo partly drawn) [Example 90, 2-((adamantan-2-yl)oxy)-N-(N,N-dimethylsulfamoyl)-3-fluoro-4-(8-((R)-3-(methoxymethyl)-4-methylpiperazin-1-yl)-7,10-dimethyl-5-oxo-1,3,4,5-tetrahydro-2H-chromeno[3,4-c]pyridine-3-carbonyl)benzamide], the IC50 in experiment [1] and in experiment [2] was 10 to 100 nM in each case.
Regarding `CCOC[C@H]1CN(c2ccc3c4c(c(=O)oc3c2C)CN(C(=O)c2ccc(C(=O)NS(=O)(=O)N3CCCC3)c(OC3CCC3)c2F)CC4)CCN1C` [Example 143, (R)-2-cyclobutoxy-4-(8-(3-(ethoxymethyl)-4-methylpiperazin-1-yl)-7-methyl-5-oxo-1,3,4,5-tetrahydro-2H-chromeno[3,4-c]pyridine-3-carbonyl)-3-fluoro-N-(pyrrolidin-1-ylsulfonyl)benzamide], the IC50 in experiment [1] lay in the range of 100 to 1000 nM; in experiment [2], 10 to 100 nM. The “MTHFD1/MTHFD2 IC50 ratio” value in experiment [2] is listed as “G (^ 3 to 9.0)”.
Take `COC[C@H]1CN(c2cc(C)c3c4c(c(=O)oc3c2C)CN(C(=O)c2ccc(C(=O)NS(=O)(=O)N3CCCC3)c(N3CCCC3)c2)CC4)CCN1C` [Example 96, (R)-4-(8-(3-(methoxymethyl)-4-methylpiperazin-1-yl)-7,10-dimethyl-5-oxo-1,3,4,5-tetrahydro-2H-chromeno[3,4-c]pyridine-3-carbonyl)-2-(pyrrolidin-1-yl)-N-(pyrrolidin-1-ylsulfonyl)benzamide]: the IC50 in experiment [1] lay in the range of 1 to 10 nM. Moreover, in experiment [2], the IC50 was in the range of 1 to 10 nM and the “MTHFD1/MTHFD2 IC50 ratio” value was “G (^ 3 to 9.0)”.
In the case of `COC[C@H]1CN(c2cc(C)c3c4c(c(=O)oc3c2C)CN(C(=O)c2ccc(C(=O)NS(=O)(=O)C3(C)CC3)c(OC3CCC3)c2F)CC4)CCN1C` [Example 41, (R)-2-cyclobutoxy-3-fluoro-4-(8-(3-(methoxymethyl)-4-methylpiperazin-1-yl)-7,10-dimethyl-5-oxo-1,3,4,5-tetrahydro-2H-chromeno[3,4-c]pyridine-3-carbonyl)-N-((1-methylcyclopropyl)sulfonyl)benzamide], the IC50 in experiment [1] and in experiment [2] was 1 to 10 nM throughout. Besides, the “MTHFD1/MTHFD2 IC50 ratio” value in experiment [2] is given as “G (^ 3 to 9.0)”.
